The assay addresses Complement C3 (Homo sapiens, UniProt P01024). Briefly: Inhibition of complement C3.

Chain of Complement C3 (P01024 23-667 limits assumed): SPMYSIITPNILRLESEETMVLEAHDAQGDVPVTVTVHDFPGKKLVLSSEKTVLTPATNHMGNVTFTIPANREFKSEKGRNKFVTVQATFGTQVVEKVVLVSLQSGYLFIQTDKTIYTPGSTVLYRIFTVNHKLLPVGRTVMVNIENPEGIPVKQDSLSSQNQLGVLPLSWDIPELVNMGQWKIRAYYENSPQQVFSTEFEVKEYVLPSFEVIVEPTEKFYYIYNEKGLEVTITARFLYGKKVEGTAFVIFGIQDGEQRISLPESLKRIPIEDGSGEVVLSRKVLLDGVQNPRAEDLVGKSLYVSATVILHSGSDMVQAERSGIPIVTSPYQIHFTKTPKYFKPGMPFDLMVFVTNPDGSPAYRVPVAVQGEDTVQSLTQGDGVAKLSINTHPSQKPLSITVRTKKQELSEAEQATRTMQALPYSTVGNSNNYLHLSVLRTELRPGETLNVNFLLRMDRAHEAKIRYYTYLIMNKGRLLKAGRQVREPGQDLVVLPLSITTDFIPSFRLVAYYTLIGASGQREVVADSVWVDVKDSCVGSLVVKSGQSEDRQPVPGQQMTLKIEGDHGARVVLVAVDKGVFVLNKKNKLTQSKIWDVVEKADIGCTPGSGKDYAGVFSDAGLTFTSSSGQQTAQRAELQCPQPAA
Chain of Complement C3 (P01024 672-1663 limits assumed): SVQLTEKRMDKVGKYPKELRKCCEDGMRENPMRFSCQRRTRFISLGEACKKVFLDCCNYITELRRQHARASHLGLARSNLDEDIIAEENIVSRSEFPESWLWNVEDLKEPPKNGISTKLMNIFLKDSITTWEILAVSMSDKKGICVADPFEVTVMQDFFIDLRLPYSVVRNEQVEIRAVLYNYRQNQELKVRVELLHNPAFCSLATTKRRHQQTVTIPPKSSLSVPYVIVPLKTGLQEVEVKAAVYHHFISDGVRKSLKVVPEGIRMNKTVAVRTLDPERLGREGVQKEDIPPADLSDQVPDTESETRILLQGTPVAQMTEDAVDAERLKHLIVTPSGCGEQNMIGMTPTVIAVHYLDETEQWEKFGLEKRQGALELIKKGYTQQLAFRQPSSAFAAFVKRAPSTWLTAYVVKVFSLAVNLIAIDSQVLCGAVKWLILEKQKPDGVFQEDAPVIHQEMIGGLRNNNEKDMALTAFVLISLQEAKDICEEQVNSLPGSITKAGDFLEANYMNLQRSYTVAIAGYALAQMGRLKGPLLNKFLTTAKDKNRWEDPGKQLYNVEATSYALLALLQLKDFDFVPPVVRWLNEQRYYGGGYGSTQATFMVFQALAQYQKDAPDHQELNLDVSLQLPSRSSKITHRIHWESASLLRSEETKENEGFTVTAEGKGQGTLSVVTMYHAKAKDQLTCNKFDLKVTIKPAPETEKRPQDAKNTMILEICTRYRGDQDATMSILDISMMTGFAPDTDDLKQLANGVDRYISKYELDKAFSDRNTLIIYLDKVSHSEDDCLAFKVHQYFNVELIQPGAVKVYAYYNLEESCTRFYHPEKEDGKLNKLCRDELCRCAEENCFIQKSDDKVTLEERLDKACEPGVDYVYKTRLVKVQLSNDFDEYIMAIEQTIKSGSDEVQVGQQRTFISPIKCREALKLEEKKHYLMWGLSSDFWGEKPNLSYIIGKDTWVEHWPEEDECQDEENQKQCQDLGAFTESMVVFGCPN

As usually defined, the IC50 is the concentration needed to halve the response being measured. Low values mean inhibition by little substance, high ones a need for much substance. On to `CC[C@H](C)[C@H](NC(C)=O)C(=O)N[C@H]1CSSC[C@@H](C(=O)N[C@H](C(N)=O)[C@@H](C)O)NC(=O)[C@H](CCCNC(=N)N)NC(=O)[C@H](Cc2c[nH]cn2)NC(=O)[C@H](C)NC(=O)CNC(=O)[C@H](Cc2c[nH]c3ccccc23)NC(=O)[C@H](CC(=O)O)NC(=O)[C@H](CCC(N)=O)NC(=O)[C@H](Cc2ccc3ccccc3c2)NC(=O)[C@H](C(C)C)NC1=O`, for which the IC50 was determined as 545 nM.

Values taken from ChEMBL document CHEMBL1137416, “Hydrophobic effect and hydrogen bonds account for the improved activity of a complement inhibitor, compstatin” (J Med Chem, 2006).
